Measurements taken from PubChem BioAssay (NCI).
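Grown in 96-well plates, cells were treated for 48 hours with each compound at five concentrations. Insufficient inhibition: endpoint recorded as highest concentration tested. At the GI50, growth is halved. Definition used: TGI = concentration required for complete inhibition of growth.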

How the values were obtained:
Experiment in all cases: growth of human tumour cells (NCI), 48 h
IGROV1 ovarian = tested on: IGROV1 ovarian
NCI-H460 lung = tested on: NCI-H460 lung
TK-10 renal = tested on: TK-10 renal
UACC-62 melanoma = tested on: UACC-62 melanoma
OVCAR-5 ovarian = tested on: OVCAR-5 ovarian
DU-145 prostate = tested on: DU-145 prostate
NCI/ADR-RES ovarian = tested on: NCI/ADR-RES ovarian
RXF 393 renal = tested on: RXF 393 renal
SK-MEL-28 melanoma = tested on: SK-MEL-28 melanoma
BT-549 breast = tested on: BT-549 breast
CCRF-CEM leukemia = tested on: CCRF-CEM leukemia
MOLT-4 leukemia = tested on: MOLT-4 leukemia
786-0 renal = tested on: 786-0 renal
NCI-H522 lung = tested on: NCI-H522 lung
NCI-H23 lung = tested on: NCI-H23 lung
U251 CNS = tested on: U251 CNS
SK-OV-3 ovarian = tested on: SK-OV-3 ovarian
EKVX NSCLC = tested on: EKVX NSCLC
HS 578T breast = tested on: HS 578T breast
RPMI-8226 leukemia = tested on: RPMI-8226 leukemia
NCI-H226 lung = tested on: NCI-H226 lung
SNB-19 CNS = tested on: SNB-19 CNS
SR leukemia = tested on: SR leukemia
HOP-62 NSCLC = tested on: HOP-62 NSCLC
LOX IMVI melanoma = tested on: LOX IMVI melanoma
MALME-3M melanoma = tested on: MALME-3M melanoma
SW-620 colon = tested on: SW-620 colon
SNB-75 CNS = tested on: SNB-75 CNS
A498 renal = tested on: A498 renal
MDA-MB-435 = tested on: MDA-MB-435
T-47D breast = tested on: T-47D breast
SK-MEL-2 melanoma = tested on: SK-MEL-2 melanoma
UACC-257 melanoma = tested on: UACC-257 melanoma
HL-60(TB) leukemia = tested on: HL-60(TB) leukemia
HCT-116 colon = tested on: HCT-116 colon
OVCAR-8 ovarian = tested on: OVCAR-8 ovarian
SN12C renal = tested on: SN12C renal
CAKI-1 renal = tested on: CAKI-1 renal
SK-MEL-5 melanoma = tested on: SK-MEL-5 melanoma
MCF7 breast = tested on: MCF7 breast
PC-3 prostate = tested on: PC-3 prostate
A549 NSCLC = tested on: A549 NSCLC
K-562 leukemia = tested on: K-562 leukemia
OVCAR-3 ovarian = tested on: OVCAR-3 ovarian
SF-268 CNS = tested on: SF-268 CNS
HT29 colon = tested on: HT29 colon
COLO 205 colon = tested on: COLO 205 colon
SF-295 CNS = tested on: SF-295 CNS
MDA-MB-231 breast = tested on: MDA-MB-231 breast
UO-31 renal = tested on: UO-31 renal
KM12 colon = tested on: KM12 colon
M14 melanoma = tested on: M14 melanoma
HCC-2998 colon = tested on: HCC-2998 colon
SF-539 CNS = tested on: SF-539 CNS
ACHN renal = tested on: ACHN renal
HCT-15 colon = tested on: HCT-15 colon
OVCAR-4 ovarian = tested on: OVCAR-4 ovarian

## COc1ccc(/C=C/C(=O)c2c(O)c(C)c(O)c3c2OC2=CC(O)=C(C(C)=O)C(=O)[C@]23C)cc1
IGROV1 ovarian
  GI50: 932 nM
  TGI: 8.02 µM
NCI-H460 lung
  GI50: 898 nM
  TGI: 3.71 µM
TK-10 renal
  GI50: 597 nM
  TGI: 5.1 µM
UACC-62 melanoma
  GI50: 891 nM
  TGI: 3.48 µM
OVCAR-5 ovarian
  GI50: 4.2 µM
  TGI: > 17.5 µM
DU-145 prostate
  GI50: 1230 nM
  TGI: 7.84 µM
NCI/ADR-RES ovarian
  GI50: 956 nM
  TGI: 4.58 µM
RXF 393 renal
  GI50: 1960 nM
  TGI: 4.99 µM
SK-MEL-28 melanoma
  GI50: 1150 nM
  TGI: 4.72 µM
BT-549 breast
  GI50: 931 nM
  TGI: 5.26 µM
CCRF-CEM leukemia
  GI50: 702 nM
  TGI: 9.97 µM
MOLT-4 leukemia
  GI50: 698 nM
  TGI: > 17.5 µM
786-0 renal
  GI50: 2440 nM
  TGI: 7.59 µM
NCI-H522 lung
  GI50: 511 nM
  TGI: 2330 nM
NCI-H23 lung
  GI50: 598 nM
  TGI: 3.13 µM
U251 CNS
  GI50: 801 nM
  TGI: 4.21 µM
SK-OV-3 ovarian
  GI50: 1790 nM
  TGI: 7.05 µM
EKVX NSCLC
  GI50: 676 nM
  TGI: 5.32 µM
HS 578T breast
  GI50: 2900 nM
  TGI: 8.76 µM
RPMI-8226 leukemia
  GI50: 596 nM
  TGI: 1880 nM
NCI-H226 lung
  GI50: 2610 nM
  TGI: 6.75 µM
SNB-19 CNS
  GI50: 1560 nM
  TGI: 7.8 µM
SR leukemia
  GI50: 1170 nM
  TGI: > 17.5 µM
HOP-62 NSCLC
  GI50: 1920 nM
  TGI: 6.13 µM
LOX IMVI melanoma
  GI50: 1800 nM
  TGI: 4.57 µM
MALME-3M melanoma
  GI50: 2230 nM
  TGI: 5.22 µM
SW-620 colon
  GI50: 659 nM
  TGI: 3.79 µM
SNB-75 CNS
  GI50: 2800 nM
  TGI: 5.95 µM
A498 renal
  GI50: 770 nM
  TGI: 2980 nM
MDA-MB-435
  GI50: 1920 nM
  TGI: 4.11 µM
T-47D breast
  GI50: 521 nM
  TGI: 2660 nM
SK-MEL-2 melanoma
  GI50: 961 nM
  TGI: 3.72 µM
UACC-257 melanoma
  GI50: 3.11 µM
  TGI: 10 µM
HL-60(TB) leukemia
  GI50: 603 nM
  TGI: 5.85 µM
HCT-116 colon
  GI50: 610 nM
  TGI: 2490 nM
OVCAR-8 ovarian
  GI50: 631 nM
  TGI: 2350 nM
SN12C renal
  GI50: 603 nM
  TGI: 2480 nM
CAKI-1 renal
  GI50: 694 nM
  TGI: 8.19 µM
SK-MEL-5 melanoma
  GI50: 1290 nM
  TGI: 3.61 µM
MCF7 breast
  GI50: 610 nM
  TGI: 3.8 µM
PC-3 prostate
  GI50: 611 nM
  TGI: 2340 nM
A549 NSCLC
  GI50: 1330 nM
  TGI: 7.26 µM
K-562 leukemia
  GI50: 627 nM
  TGI: > 17.5 µM
OVCAR-3 ovarian
  GI50: 649 nM
  TGI: 2830 nM
SF-268 CNS
  GI50: 871 nM
  TGI: 4.72 µM
HT29 colon
  GI50: 860 nM
  TGI: 4.33 µM
COLO 205 colon
  GI50: 1930 nM
  TGI: 4.54 µM
SF-295 CNS
  GI50: 821 nM
  TGI: 5.11 µM
MDA-MB-231 breast
  GI50: 1040 nM
  TGI: 5.66 µM
UO-31 renal
  GI50: 3.45 µM
  TGI: 10.6 µM
KM12 colon
  GI50: 1040 nM
  TGI: 5.9 µM
M14 melanoma
  GI50: 925 nM
  TGI: 4.82 µM
HCC-2998 colon
  GI50: 1960 nM
  TGI: 5.12 µM
SF-539 CNS
  GI50: 2710 nM
  TGI: 6.44 µM
ACHN renal
  GI50: 1030 nM
  TGI: 10.4 µM
HCT-15 colon
  GI50: 706 nM
  TGI: 3.48 µM
OVCAR-4 ovarian
  GI50: 2210 nM
  TGI: 10 µM
